According to patent publication US10578612B2, “Diagnostic assay” (priority 2010, dated 2020):
“And” between values parts separate entries of the source, which are not always exact repeats. Equal values may be shown once. Bridge positions count the residues as written; N and C are the ends. Square brackets hold non-standard residues; d marks the D form. Peptide text beside a SMILES is read from it. * marks the point of attachment. Octanoyl(6-Me) = CCC(C)CCCCC(=O)*; Dab = NCC[CH](N)C(=O)O

What was measured:
Format in all cases: cell-based, human
[1] = system: IFN-γ production in stimulated whole blood
[2] = system: IFN-γ production in blood (CMV antigen); assay: Effect of polymyxin B on IFN-γ production in blood in QuantiFERON-CMV tubes (Example 2)
Experimental: The effect of polymyxin B on IFN-γ production was assessed. Blood from 8 healthy donors was added to QuantiFERON-CMV blood collection tubes (1.0 mL per tube). One tube for each donor had 1.0 μg/mL of polymyxin B added, whilst the second tube served as a control. Blood was incubated at 37° C. for 20 hours before the tubes were centrifuged and the resultant concentration of IFN-γ determined by ELISA.

[3] = system: non-specific IFN-γ production in blood containing lipopolysaccharides (LPS); assay: Effect of polymyxin B on non-specific IFN-γ production in blood containing LPS (Example 3)
Experimental: In this Example, blood from 8 healthy donors was collected in Li-Heparin tubes. Aliquots of 1.0 mL were prepared in 13/75 mm plain gel tubes. An endotoxin, lipopolysaccharides (LPS), was added to each tube of blood at a concentration of 1 μg/mL. Various concentrations of polymyxin B were added to each of the tubes. The blood was then incubated at 37° C. for 20 hours before the tubes were centrifuged and the IFN-γ concentration of the plasma determined by ELISA.

[4] = system: non-specific IFN-γ production in blood from BD heparin tube (endotoxin contamination); assay: Polymyxin B in endotoxin-contaminated BD heparin tubes, IFN-γ assay (Example 4)
Experimental: Blood was taken from four healthy donors collected in Li-Heparin tubes. […] Tubes were mixed to resolublize the heparin and to ensure blood contact with tube plastic.
Aliquots of 1.0 mL from each heparin tube type were then transferred to 13/75 mm plain gel tubes. The blood was then incubated at 37° C. for 20 hours before the tubes were centrifuged and the IFN-γ concentration of the plasma determined by ELISA.

[5] = system: immune response to lipopolysaccharide (LPS), IFN-γ in blood; assay: Effect of sushi peptide on immune response of blood to LPS (Example 6, FIGS. 1-2); details: sushi peptide 0-10 μg/ml, antigens CMV and tetanus toxoid, FIGS. 2a-2c
Experimental: Heparinized blood samples were collected into Li-Hep Vacuette (registered trade mark) tubes (Greiner Bio-one, Germany).
Aliquots of 1 ml of the blood samples were incubated with various concentrations of Lipopolysaccharide (Sigma, Australia) and a sushi peptide ([…]) [SEQ ID NO:1] (American Peptide Company, California) in nil blood collection tubes (QuantiFERON [registered trade mark]-TB Gold In-Tube, Cellestis Ltd, Australia) either as supplied or spiked with tetanus toxoid (1001 fu/ml), or in CMV tubes (QuantiFERON-CMV, Cellestis Ltd, Australia).
Stimulated blood samples were incubated for 16-24 hr at 37° C., after which the tubes were centrifuged and the plasma harvested. The amount of IFN-γ present in each plasma sample was then quantified using the QuantiFERON (registered trade mark)-TB Gold ELISA (Cellestis Limited, Australia) as per the manufacturer's instructions.
ELISA optical density values for IFN-γ standards run on each ELISA plate were used to construct a standard curve from which the amount of IFN-γ present in each of the test plasma samples was converted to IU/mL values.

polyinosinic acid-polycytidylic acid [PolyI:C]
IFN-γ response to poly(I:C) alone [1]: relatively small | effect on IFN-γ production with antigen [1]: increases the IFN-γ production

CCC(C)CCCCC(=O)NC(CCN)C(=O)NC(C(=O)NC(CCN)C(=O)NC1CCNC(=O)C(C(C)O)NC(=O)C(CCN)NC(=O)C(CCN)NC(=O)C(CC(C)C)NC(=O)C(Cc2ccccc2)NC(=O)C(CCN)NC1=O)C(C)O (stereo not drawn) [polymyxin B, N-[4-amino-1-[[1-[[4-amino-1-oxo-1-[[6,9,18-tris(2-aminoethyl)-15-benzyl-3-(1-hydroxyethyl)-12-(2-methylpropyl)-2,5,8,11,14,17,20-heptaoxo-1,4,7,10,13,16,19-heptazacyclotricos-21-yl]amino]butan-2-yl]amino]-3-hydroxy-1-oxobutan-2-yl]amino]-1-oxobutan-2-yl]-6-methyloctanamide] ({Octanoyl(6-Me)}-[Dab]T[Dab][Dab][Dab]FL[Dab][Dab]T; lactam 4-C; configuration not given here)
effect on the production of IFN-γ ([2]; 1 μg/mL polymyxin B, CMV antigen): does not adversely affect the production of IFN-γ | IFN-γ concentration, CMV + PMB 1.0 μg/mL ([2]; QuantiFERON-CMV tube, 1.0 μg/mL polymyxin B, 37° C. 20 hours, ELISA, one line per subject): 8.35 IU/mL and 0.04 IU/mL (2×) and 0.08 IU/mL and 0.51 IU/mL and 1.53 IU/mL and 24.28 IU/mL and 0.05 IU/mL and 2.3 IU/mL and 0.55 IU/mL | IFN-γ concentration, 1 μg/mL LPS, polymyxin 0.1 ug/mL ([3]; blood + 1 μg/mL LPS, polymyxin B 0.1 ug/mL, 37° C. 20 hours, one line per subject): 0.67 IU/mL and 0.44 IU/mL and 9.28 IU/mL and 2.87 IU/mL and 0.32 IU/mL and 2.00 IU/mL and 0.79 IU/mL and 0.41 IU/mL | IFN-γ concentration, 1 μg/mL LPS, polymyxin 1 ug/mL ([3]; blood + 1 μg/mL LPS, polymyxin B 1 ug/mL, 37° C. 20 hours, one line per subject): 0.41 IU/mL and 0.22 IU/mL and 3.31 IU/mL and 2.57 IU/mL and 0.21 IU/mL and 1.17 IU/mL and 0.50 IU/mL and 0.14 IU/mL | IFN-γ concentration, 1 μg/mL LPS, polymyxin 10 ug/mL ([3]; blood + 1 μg/mL LPS, polymyxin B 10 ug/mL, 37° C. 20 hours, one line per subject): 0.25 IU/mL and 0.11 IU/mL (2×) and 1.96 IU/mL and 1.41 IU/mL and 0.36 IU/mL and 0.32 IU/mL and 0.12 IU/mL | IFN-γ concentration, 1 μg/mL LPS, polymyxin 100 ug/mL ([3]; blood + 1 μg/mL LPS, polymyxin B 100 ug/mL, 37° C. 20 hours, one line per subject): 0.02 IU/mL (3×) and 0.05 IU/mL (2×) and 0.04 IU/mL and 0.18 IU/mL and 0.06 IU/mL | effect on non-specific IFN-γ production ([3]; samples containing endotoxin (LPS 1 μg/mL)): caused a reduction in non-specific IFN-γ production | effect on non-specific IFN-γ production in BD heparin tubes ([4]; 100 ug/mL polymyxin B, BD heparin tubes known to contain endotoxin): significantly reduced | IFN-gamma, BD Heparin Tube + 100 μg/mL Polymyxin B ([4]; blood from BD heparin tube (endotoxin contaminated) with 100 μg/mL polymyxin B, 37° C. 20 hours, one line per subject): 0.51 IU/mL and 0.11 IU/mL (2×) and 0.24 IU/mL

HAEHKVKIGVEQKYGQFPQGTEVTYTCSGNYFLM (Sushi peptide)
effect on immune response to LPS [5]: inhibition of an immune response to lipopolysaccharide (LPS)
